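Tested at 5 concentrations; 48 h exposure; 96-well plates; endpoints linearly interpolated, else capped at highest concentration. The concentration for 50% growth inhibition is given as GI50.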 Active and inactive are the calls of the source. Rule as the data show it: active = GI50 up to about 1.1 µM and inactive = higher.
How the values were obtained:
Test in all cases: DTP human tumour cell line panel, 48 h
SR = system: SR
HCT-15 = system: HCT-15
U-251 = system: U-251
786-0 = system: 786-0
MOLT-4 = system: MOLT-4
RXF 393 = system: RXF 393
SK-MEL-2 = system: SK-MEL-2
SK-MEL-28 = system: SK-MEL-28
KM12 = system: KM12
UO-31 = system: UO-31
UACC-62 = system: UACC-62
HL-60 = system: HL-60
EKVX = system: EKVX
SK-OV-3 = system: SK-OV-3
HCC 2998 = system: HCC 2998
SW-620 = system: SW-620
LOX IMVI = system: LOX IMVI
HT-29 = system: HT-29

SMILES | GI50 (SR) | GI50 (HCT-15) | GI50 (U-251) | GI50 (786-0) | GI50 (MOLT-4) | GI50 (RXF 393) | GI50 (SK-MEL-2) | GI50 (SK-MEL-28) | GI50 (KM12) | GI50 (UO-31) | GI50 (UACC-62) | GI50 (HL-60) | GI50 (EKVX) | GI50 (SK-OV-3) | GI50 (HCC 2998) | GI50 (SW-620) | GI50 (LOX IMVI) | GI50 (HT-29)
O=C1NC(=S)NC(=O)C1=Cc1cc2c(cc1[N+](=O)[O-])OCO2 | 35.9 µM (inactive) | 39.7 µM | > 100 µM (inactive) | 62.8 µM (inactive) | 51.4 µM (inactive) | > 100 µM (inactive) | > 100 µM (inactive) | > 100 µM (inactive) | 40.6 µM (inactive) | > 100 µM (inactive) | > 100 µM (inactive) | 35.8 µM (inactive) | > 100 µM (inactive) | > 100 µM (inactive) | > 100 µM (inactive) | 39.1 µM (inactive) |  | 
Cc1cc(C)c(N)c(C)c1N | > 100 µM (inactive) | > 100 µM | > 100 µM (inactive) | > 100 µM (inactive) | > 100 µM (inactive) | > 100 µM (inactive) | > 100 µM (inactive) | > 100 µM (inactive) | > 100 µM (inactive) | > 100 µM (inactive) | > 100 µM (inactive) | > 100 µM (inactive) | > 100 µM (inactive) | > 100 µM (inactive) | > 100 µM (inactive) | > 100 µM (inactive) | > 100 µM (inactive) | 
C=CCN(N=O)C(=O)NCCCCC(NC(C)=O)C(=O)NCc1ccccc1 (configuration not stated) |  | > 100 µM | > 100 µM (inactive) | > 100 µM (inactive) | > 100 µM (inactive) | > 100 µM (inactive) | 72.6 µM (inactive) | > 100 µM (inactive) | > 100 µM (inactive) | > 100 µM (inactive) | > 100 µM (inactive) | > 100 µM (inactive) | > 100 µM (inactive) | > 100 µM (inactive) |  | > 100 µM (inactive) | > 100 µM (inactive) | > 100 µM (inactive)
COC(=O)c1ccc(N/C=C(/C#N)c2ccsc2)cc1 | > 100 µM (inactive) | 50.9 µM | 6.92 µM (inactive) | 11.1 µM (inactive) | > 100 µM (inactive) | 11.4 µM (inactive) | 22.2 µM (inactive) | 15.6 µM (inactive) | 12.9 µM (inactive) | 14.4 µM (inactive) | 20.5 µM (inactive) | > 100 µM (inactive) | 15.9 µM (inactive) |  | 18.4 µM (inactive) | 21.3 µM (inactive) |  | 11.1 µM (inactive)
CC12Nc3ccccc3C1=C(c1ccccc1)CC1C(=O)OC(=O)C12 (configuration not stated) |  | > 100 µM | > 100 µM (inactive) | > 100 µM (inactive) | > 100 µM (inactive) | > 100 µM (inactive) | > 100 µM (inactive) | > 100 µM (inactive) | > 100 µM (inactive) | > 100 µM (inactive) | > 100 µM (inactive) | > 100 µM (inactive) | > 100 µM (inactive) |  | > 100 µM (inactive) | > 100 µM (inactive) | > 100 µM (inactive) | > 100 µM (inactive)
O=C1CCC(=O)N1Sc1ccccc1 |  | > 100 µM | > 100 µM (inactive) | > 100 µM (inactive) | > 100 µM (inactive) | > 100 µM (inactive) | > 100 µM (inactive) | > 100 µM (inactive) | > 100 µM (inactive) | > 100 µM (inactive) | > 100 µM (inactive) | > 100 µM (inactive) | > 100 µM (inactive) | > 100 µM (inactive) |  | > 100 µM (inactive) | > 100 µM (inactive) | 
COc1ccc(C2=C(Cl)c3cc(OC)c(OC)cc3C2OC)cc1OC (configuration not stated) |  | 56.9 µM |  | 11.2 µM (inactive) | > 100 µM (inactive) | > 100 µM (inactive) | > 100 µM (inactive) | > 100 µM (inactive) | > 100 µM (inactive) | > 100 µM (inactive) | > 100 µM (inactive) | 8.11 µM (inactive) | > 100 µM (inactive) |  | > 100 µM (inactive) | 19.5 µM (inactive) | 50.2 µM (inactive) | > 100 µM (inactive)
O=NN(CCCl)C(=O)N[C@H]1CCCC[C@@H]1Cl | 3.48 µM (inactive) | > 100 µM | 30.4 µM (inactive) | 37.8 µM (inactive) | 32.4 µM (inactive) | > 100 µM (inactive) | > 100 µM (inactive) | > 100 µM (inactive) | > 100 µM (inactive) | > 100 µM (inactive) |  | 19.6 µM (inactive) | > 100 µM (inactive) | > 100 µM (inactive) | > 100 µM (inactive) | > 100 µM (inactive) |  | 79.6 µM (inactive)
CC(C)c1cccc(C(C)C)c1NC(=O)C(=O)CC(=O)CC(c1ccccc1)c1c(O)oc2ccccc2c1=O (configuration not stated) | > 100 µM (inactive) |  |  | > 100 µM (inactive) | > 100 µM (inactive) | > 100 µM (inactive) | > 100 µM (inactive) | > 100 µM (inactive) | > 100 µM (inactive) | > 100 µM (inactive) | > 100 µM (inactive) | > 100 µM (inactive) | > 100 µM (inactive) | > 100 µM (inactive) | > 100 µM (inactive) | > 100 µM (inactive) |  | > 100 µM (inactive)

From ChEMBL document CHEMBL1201862, “PubChem BioAssay data set” (2004)
